target: ROCK2 (Homo sapiens, UniProt O75116); assay: ROCK2 kinase inhibition assay (Caliper LABCHIP, FITC peptide substrate); format: biochemical; details: 5 μM ATP, 1.5 μM peptide substrate; value ranges
How it was run: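 Dose-response curves gave IC50 from inhibition of peptide phosphorylation, measured by LabChip separation after EDTA stop. Reactions used 1.5 μM FITC-labelled peptide, 5 μM ATP, 20 mM HEPES pH 7.5 with MgCl2, Brij-35, DTT, and under 2% DMSO.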

Sequence of ROCK2 (O75116 whole entry, species assumed): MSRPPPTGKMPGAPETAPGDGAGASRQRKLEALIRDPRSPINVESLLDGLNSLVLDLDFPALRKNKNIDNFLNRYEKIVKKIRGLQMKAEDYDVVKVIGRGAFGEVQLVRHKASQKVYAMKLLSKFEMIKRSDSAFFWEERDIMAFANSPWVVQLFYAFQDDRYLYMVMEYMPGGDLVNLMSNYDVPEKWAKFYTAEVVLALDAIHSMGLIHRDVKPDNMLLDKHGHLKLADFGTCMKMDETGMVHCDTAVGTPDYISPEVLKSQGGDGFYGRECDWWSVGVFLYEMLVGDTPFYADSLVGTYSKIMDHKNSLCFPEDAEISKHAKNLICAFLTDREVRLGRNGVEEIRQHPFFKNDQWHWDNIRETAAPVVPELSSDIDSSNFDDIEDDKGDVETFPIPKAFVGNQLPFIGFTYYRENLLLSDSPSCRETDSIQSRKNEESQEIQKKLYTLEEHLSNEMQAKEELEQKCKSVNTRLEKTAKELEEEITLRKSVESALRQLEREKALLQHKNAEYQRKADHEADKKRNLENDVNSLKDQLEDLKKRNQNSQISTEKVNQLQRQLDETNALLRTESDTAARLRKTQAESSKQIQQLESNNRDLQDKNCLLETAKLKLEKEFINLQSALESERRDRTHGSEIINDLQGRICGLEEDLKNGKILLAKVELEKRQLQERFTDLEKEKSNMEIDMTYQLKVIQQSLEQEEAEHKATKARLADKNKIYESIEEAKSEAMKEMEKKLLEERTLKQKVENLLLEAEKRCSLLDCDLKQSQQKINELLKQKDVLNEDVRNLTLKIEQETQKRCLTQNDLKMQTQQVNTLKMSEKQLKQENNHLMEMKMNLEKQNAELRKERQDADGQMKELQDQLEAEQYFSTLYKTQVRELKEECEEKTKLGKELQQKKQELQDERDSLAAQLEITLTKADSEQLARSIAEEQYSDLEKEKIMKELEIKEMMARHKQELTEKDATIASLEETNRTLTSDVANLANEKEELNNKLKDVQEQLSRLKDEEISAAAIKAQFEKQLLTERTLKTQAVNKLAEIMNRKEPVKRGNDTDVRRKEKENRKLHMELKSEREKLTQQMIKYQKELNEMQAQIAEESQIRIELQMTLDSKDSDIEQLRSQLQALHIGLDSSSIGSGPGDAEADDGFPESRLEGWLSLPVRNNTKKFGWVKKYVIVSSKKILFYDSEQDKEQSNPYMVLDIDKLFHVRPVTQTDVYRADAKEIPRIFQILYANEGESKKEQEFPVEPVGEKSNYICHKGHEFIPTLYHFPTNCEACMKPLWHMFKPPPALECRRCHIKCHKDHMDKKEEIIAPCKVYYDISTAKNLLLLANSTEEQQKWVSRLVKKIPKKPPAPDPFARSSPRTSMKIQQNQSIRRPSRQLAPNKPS

IC50 | SMILES
2.1 to 20 nM | COc1cc(F)cc(CN2CCN(c3ccc(-c4cn[nH]c4)c(C)n3)C2=O)c1 [Example 178, 1-(3-fluoro-5-methoxy-benzyl)-3-(6-methyl-5-(1H-pyrazol-4-yl)pyridin-2-yl)-imidazolidin-2-one]
2.1 to 20 nM | COc1cc(F)cc(C(C)N2CCN(c3ccc(-c4cn[nH]c4)c(OC)n3)C2=O)c1 (single isomer, unassigned) [Example 229, 1-(1-(3-fluoro-5-methoxyphenyl)ethyl)-3-(6-methoxy-5-(1H-pyrazol-4-yl)pyridin-2-yl)imidazolidin-2-one]
200 to 2000 nM | CCc1nc(-n2ccn(C(C)c3cccc(OC)c3)c2=O)ccc1-c1cn[nH]c1 (single isomer, unassigned) [Example 184, 1-(6-ethyl-5-(1H-pyrazol-4-yl)pyridin-2-yl)-3-(1-(3-methoxy-phenyl)-ethyl)-1H-imidazol-2(3H)-one]
20.1 to 200 nM | COc1cccc(C(C(=O)NCC2CC2)N2CCN(c3ccc(-c4cn[nH]c4)cc3)C2=O)c1 (single isomer, unassigned) [Example 296, 2-(3-(4-(1H-pyrazol-4-yl)phenyl)-2-oxoimidazolidin-1-yl)-N-(cyclopropylmethyl)-2-(3-methoxyphenyl)acetamide]
20.1 to 200 nM | COc1cc(N2CC(=O)N(Cc3ccccc3Cl)C2=O)ccc1-c1cn[nH]c1 [Example 104, 3-(2-chlorobenzyl)-1-(3-methoxy-4-(1H-pyrazol-4-yl)phenyl)imidazolidine-2,4-dione]
2.1 to 20 nM | O=C1N(Cc2cccc(F)c2)CC(CO)N1c1ccc(-c2cn[nH]c2)cc1 (stereo not drawn) [Example 39, 3-(4-(1H-Pyrazol-4-yl)phenyl)-1-(3-fluorobenzyl)-4-(hydroxymethyl)imidazolidin-2-one]
200 to 2000 nM | COc1cc(N2C(=O)CN(CCc3ccccc3)C2=O)ccc1-c1cn[nH]c1 [Example 97, 3-(3-methoxy-4-(1H-pyrazol-4-yl)phenyl)-1-phenethylimidazolidine-2,4-dione]
< 2 nM | COc1nc(N2CCN(Cc3cccc(F)c3C)C2=O)ccc1-c1cn[nH]c1 [Example 248, 1-(3-fluoro-2-methylbenzyl)-3-(6-methoxy-5-(1H-pyrazol-4-yl)pyridin-2-yl)imidazolidin-2-one]
< 2 nM | COc1nc(-n2ccn(Cc3cccc(F)c3)c2=O)ccc1-c1cn[nH]c1 [Example 413, 1-(3-fluorobenzyl)-3-(6-methoxy-5-(1H-pyrazol-4-yl)pyridin-2-yl)-1H-imidazol-2(3H)-one]
20.1 to 200 nM | CC(c1ccccc1)n1ccn(-c2ccc(-c3cn[nH]c3)cc2)c1=O (stereo not drawn) [Example 332, 1-(4-(1H-pyrazol-4-yl)phenyl)-3-(1-phenylethyl)-1H-imidazol-2(3H)-one]
2.1 to 20 nM | COc1cccc(CN2CCN(c3ccc(-c4cn[nH]c4)nc3)C2=O)c1 [Example 439, 1-(6-(1H-pyrazol-4-yl)pyridin-3-yl)-3-(3-methoxybenzyl)imidazolidin-2-one]
< 2 nM | COc1cccc(Cn2ccn(-c3ccc(-c4cn[nH]c4)cc3)c2=O)c1 [Example 334, l-(4-(1H-pyrazol-4-yl)phenyl)-3-(3-methoxybenzyl)-1H-imidazol-2(3H)-one]
2.1 to 20 nM | CNC(=O)C(c1cccc(OC)c1)N1CCN(c2ccc(-c3cn[nH]c3)cc2)C1=O (single isomer, unassigned) [Example 292, 2-(3-(4-(1H-pyrazol-4-yl)phenyl)-2-oxoimidazolidin-1-yl)-2-(3-methoxyphenyl)-N-methylacetamide]
200 to 2000 nM | CCc1nc(N2CCN(C(C)c3cccc(OC)c3)C2=O)ccc1-c1cn[nH]c1 (single isomer, unassigned) [Example 174, 1-(6-ethyl-5-(1H-pyrazol-4-yl)pyridin-2-yl)-3-(1-(3-methoxy-phenyl)ethyl) imidazolidin-2-one]
2.1 to 20 nM | COc1nc(N2CCN(Cc3cccc(C)c3)C2=O)ccc1-c1cn[nH]c1 [Example 257, 1-(6-methoxy-5-(1H-pyrazol-4-yl)pyridin-2-yl)-3-(3-methylbenzyl)imidazolidin-2-one]
< 2 nM | COc1nc(N2CCN(Cc3cccc(OCC4CC4)c3)C2=O)ccc1-c1cn[nH]c1 [Example 475, 1-(3-(cyclopropylmethoxy)benzyl)-3-(6-methoxy-5-(1H-pyrazol-4-yl)pyridin-2-yl)imidazolidin-2-one]
2.1 to 20 nM | CCc1nc(-n2ccn(Cc3cc(F)cc(OC)c3)c2=O)ccc1-c1cn[nH]c1 [Example 172, 1-(6-ethyl-5-(1H-pyrazol-4-yl)pyridin-2-yl)-3-(3-fluoro-5-methoxy-benzyl)-1H-imidazol-2(3H)-one]
2.1 to 20 nM | COc1nc(N2CCN(Cc3cccnc3)C2=O)ccc1-c1cn[nH]c1 [Example 253]
200 to 2000 nM | COc1cc(N2C(=O)CN(C(C)c3ccccc3)C2=O)ccc1-c1cn[nH]c1 (stereo not drawn) [Example 96, 3-(3-methoxy-4-(1H-pyrazol-4-yl)phenyl)-1-(1-phenylethyl)imidazolidine-2,4-dione]
200 to 2000 nM | O=C1N(CCc2ccccc2)CCN1c1ccc(-c2ccncc2F)cc1 [Example 53, 1-(4-(3-fluoropyridin-4-yl)phenyl)-3-phenethylimidazolidin-2-one]
2.1 to 20 nM | COc1cccc(C(C(=O)NCC(C)C)N2CCN(c3ccc(-c4cn[nH]c4)cc3)C2=O)c1 (single isomer, unassigned) [Example 294, 2-(3-(4-(1H-pyrazol-4-yl)phenyl)-2-oxoimidazolidin-1-yl)-N-isobutyl-2-(3-methoxyphenyl)acetamide]
20.1 to 200 nM | COc1c(F)cccc1Cn1ccn(-c2ccc(-c3cn[nH]c3)cc2)c1=O [Example 405, 1-(4-(1H-pyrazol-4-yl)phenyl)-3-(3-fluoro-2-methoxybenzyl)-1H-imidazol-2(3H)-one]
20.1 to 200 nM | COc1cccc(C(C)(CO)N2CCN(c3ccc(-c4cn[nH]c4)cc3)C2=O)c1 (single isomer, unassigned) [Example 287, 1-(4-(1H-Pyrazol-4-yl)phenyl)-3-(1-hydroxy-2-(3-methoxyphenyl)propan-2-yl)imidazolidin-2-one]
200 to 2000 nM | COc1cccc(C(C)N2CCN(c3ccc(-c4cn[nH]c4)c(C)n3)C2=O)c1 (single isomer, unassigned) [Example 182, 1-(1-(3-methoxy-phenyl)-ethyl)-3-(6-methyl-5-(1H-pyrazol-4-yl)pyridin-2-yl)-imidazolidin-2-one]
20.1 to 200 nM | COc1cccc(C(C)(CO)N2CCN(c3ccc(-c4cn[nH]c4)cc3)C2=O)c1 (single isomer, unassigned) [Example 286, 1-(4-(1H-Pyrazol-4-yl)phenyl)-3-(1-hydroxy-2-(3-methoxyphenyl)propan-2-yl)imidazolidin-2-one]
2.1 to 20 nM | COc1cccc(CN2CCN(c3ccc(-c4cn[nH]c4)c(OC)n3)C2=O)c1F [Example 252, 1-(2-fluoro-3-methoxybenzyl)-3-(6-methoxy-5-(1H-pyrazol-4-yl)pyridin-2-yl)imidazolidin-2-one]
2.1 to 20 nM | COc1cccc(C(C)n2ccn(-c3ccc(-c4cn[nH]c4)c(OC)n3)c2=O)c1 (single isomer, unassigned) [Example 401, 1-(6-methoxy-5-(1H-pyrazol-4-yl)pyridin-2-yl)-3-(1-(3-methoxyphenyl)ethyl)-1H-imidazol-2(3H)-one]
